Structures are written as SMILES. Read-outs that look alike come from different tables or passages of the source.

The subject of data set [1] is human colon carcinoma HCT-116 xenografts. The following applies: mouse, in vivo.
Data set [2] has as its system carrageenan-induced paw edema. Nature of the data set: Carrageenan-induced paw edema. Type of data set: in vivo, CD mice. The following applies: FIG. 17; 10, 15, 20 mg/kg iv injection. Here is the method: FIG. 17 compares the anti-inflammatory effect of Compound (D), acetylsalicylic acid (aspirin), and LIDEX against carrageenan-induced paw edema in CD mice. […] The first vertical bar in each set is the control. The second vertical bar in each set is acetylsalicylic acid (200 mg/kg, oral). The third vertical bar in each set is LIDEX cream administered locally, the fourth vertical bar in each set is Compound (D) (10 mg/kg iv injection), the fifth vertical bar in each set is Compound (D) (15 mg/kg iv injection), and the sixth vertical bar in each set is Compound (D) (20 mg/kg iv injection). 1% Carrageenan (20 μL, i.m., injected directly into the paw of CD mice to produce paw edema) was administered at time=0. Compound (D) was administered at 24 hours prior to the carrageenan injection, 1 hour prior to the carrageenan injection, and 6 hours after the carrageenan injection. Acetylsalicylic acid was administered at 1 hour prior to the carrageenan injection, and 6 hours after the carrageenan injection. LIDEX cream was administered at 1 hour prior to the carrageenan injection, and 6 hours after the carrageenan injection. * means P<0.05 and ** means P<0.01.
The comparisons are made by comparing the volumes of the inflamed pedis area (induced by a injection of a 1% carageenan solution) at different time points after the initial carageenan injection. […]
(Carrageenan injected into the paw causes an acute inflammation.)

The subject of data set [3] is CCRF-CEM subline resistant to TAXOL. The data set is described as follows: In vitro cytotoxicity against TAXOL-resistant CCRF-CEM subline. The format is cell-based, human. The following applies: for IC50: Homo sapiens, CCRF-CEM; for fold of cross-resistance (CCRF-CEM/TAXOL vs parent cell line): Table 3D, given as x or -fold.
Data set [4] deals with A-549 lung carcinoma. Nature of the data set: Cytotoxicity against solid tumor cells (Table 4). The format is cell-based. To be noted: Homo sapiens, A549, CCK-8, 72 hrs. How it is done: (§1) Compounds are also evaluated against A-549 lung carcinoma and SK-OV-3 ovarian adenocarcinoma cell lines using the methodology as for Table 3. The potency order for the compounds may vary in different tumor cell lines. […] Absorbance was measured using a Powerwave XS microplate spectrophotometer.

For data set [5], the system named is SK-OV-3 ovarian adenocarcinoma. The data set is described as follows: Cytotoxicity against solid tumor cells (Table 4). Type of data set: cell-based. To be noted: Homo sapiens, CCK-8, 72 hrs. Here is the method:
as §1

For data set [6], the system named is quinone reductase (NQO1) in Hepa 1c1c7 murine hepatoma cells. The data set is described as follows: Phase 2 enzyme inducer activity (Prochaska microtiter plate bioassay). How it is done:
Pure panaxytriol was dissolved in dimethyl sulfoxide. Phase 2 enzyme inducer activity was measured using a rapid assay of activity of representative phase 2 enzyme in a cell line. This assay was originally developed by Prochaska and colleagues as in Prochaska H J, Santamaria A B, Talalay P. “Rapid detection of inducers of enzymes that protect against carcinogens.” Proc Natl Acad Sci US A 1992; 89:2394-2398, and has been further refined as in Fahey J W, Dinkova-Kostova A T, Stephenson K K, Talalay P. “The “Prochaska” microtiter plate bioassay for inducers of NQO1.” Methods Enzymol. 2004; 382:243-258, each of which are incorporated by reference in its entirety. Briefly, Hepa 1c1c7 murine hepatoma cells were grown in 96-well microtiter plates. Serial dilutions of the extracts or compounds which were assayed were added into the wells. After 48 hours, the cells were lysed and the activity of quinone reductase (NQO1) was assayed by the addition of a reaction mixture containing an NADPH-generating system, menadione and MTT. NQO1 catalyzes the reduction of menadione to menadiol by NADPH, and MTT is reduced nonenzymatically by menadiol, resulting in the formation of a blue color that can then be quantitated as in Prochaska H J, Santamaria A B. “Direct measurement of NAD(P)H:quinone reductase from cells cultured in microtiter wells: a screening assay for anticarcinogenic enzyme inducers.” Anal. Biochem. 1988; 169:328-336, which is incorporated by reference in its entirety. […] NQO1 activity and protein content of the lysate were measured in duplicate plates with an optical microtiter plate absorbance reader. […] One unit of inducer activity is defined as the amount that, when added to a single microtiter well, doubles the NQO1 specific activity. Sulforaphane and β-naphthoflavone were used as positive controls in each bioassay. […] NQO1 inducer activity was assayed as described herein, and is reported here as treated/control at different concentrations of ginseng extract or component per well. […] (+) Panaxytriol (molecular weight […]), (Δ) Protopanaxatriol (molecular weight 461), (◯) Korean red SUN GINSENG® extract. The reductase assay can also be performed as disclosed in PCT Publication No. WO 06/023821, the entire contents of which are hereby incorporated in the instant application.

Data set [7] has as its system human lymphoblastic leukemic T-cell growth. The data set is described as follows: Cytotoxic activity relative to stability during storage at −20° C. in DMSO (Table 10). Type of data set: cell-based. To be noted: Homo sapiens, CCRF-CEM, 72 h, XTT, 72 hr. On the technique in general: Formazan colour is commonly taken as a measure of viable cells.
[8] abbreviates: 72 h, read-out: IC50 CCRF-CEM/TAXOL.

On to `C=C[C@H](O)C#CC#CC[C@H]1OC(C)(C)O[C@@H]1CCCCCCC` [Compound (D)], for which, in data set [1], the “effect of co-administration on iso-oxazole-fludelone toxicity (body weight)” value is on record as “significantly reduces iso-oxazole-fludelone toxicity”. In addition, the “body weight retention during Isodehydelone treatment” value in data set [1] (po) was “retained their body weight significantly better”. In addition, in data set [2], the anti-inflammatory effect entry is given as “mild, slow on-set, anti-inflammatory effect”. The IC50 in data set [3] (setting [8]) came to 1.03 µM; in data set [3] (Table 3A-2, CCK-8, 72-hr exposure, read-out: CCRF-CEM/TAXOL (IC50 in μM)) it was 1.02 µM; in data set [4], 2.85 µM; in data set [5], 5.08 µM. In addition, in data set [3] (Table 3A-2), the “Fold of resistance (IC50 ratio CCRF-CEM/TAXOL vs CCRF-CEM)” value is reported as 0.90 fold. Also, the “fold of cross-resistance (CCRF-CEM/TAXOL vs parent cell line)” value in data set [3] is on record as 2.17 fold.

As for `C=C[C@@H](O)C#CC#CC[C@@H](O)[C@H](O)CCCCCCC` [panaxytriol], the IC50 in data set [3] (72 h, read-out: CCRF-CEM/TAXOL (IC50 in μM)) stood at 3.09 µM; in data set [3] (setting [8]), 5.22 µM; in data set [7] (read-out: IC50 in μM CCRF-CEM, Table 10, Aug. 22, 2003 (Stored), same solution kept at −20° C. in DMSO), 11 µM; in data set [7] (read-out: IC50 in μM CCRF-CEM, Table 10, Jul. 25, 2003 (Fresh)), 6.34 µM; in data set [7] (read-out: IC50 in μM CCRF-CEM/VBL, Table 10, Aug. 22, 2003 (Stored), same solution kept at −20° C. in DMSO) it was 19.4 µM; in data set [7] (read-out: IC50 in μM CCRF-CEM/VBL, Table 10, Jul. 25, 2003 (Fresh)) it was 4.71 ± 0.73 µM. Also, the “Fold of resistance (IC50 ratio CCRF-CEM/TAXOL vs CCRF-CEM)” value in data set [3] (Table 3A-2) was found to be 0.84 fold. Also, the “fold of cross-resistance (CCRF-CEM/TAXOL vs parent cell line)” value in data set [3] worked out at 1.04 fold. Further, the “potency as an inducer relative to protopanxadiol or protopanaxatriol” value in data set [6] is reported as “over 10 fold”. Further, in data set [6] (Hepa 1c1c7 cells), the “significant cytotoxicity observed above” value is “above 0.5 μg/well”. For the same compound, in data set [6] (NQO1), the inducer potency is given as 5,760,000 U/g. For the same compound, the “concentration of doubling (CD), average” value in data set [6] (NQO1, 48 hours) worked out at 3.85 µM.

These data come from patent US8859615B2, “Compounds, compositions and methods for reducing toxicity and treating or preventing diseases” (priority 2008, dated 2014).
